Source: patent publication US9642889B2, “Macrocyclic inhibitors of Flaviviridae viruses” (Selcia Limited, priority 2012, dated 2017)
Like-named read-outs stand apart in the source and are kept apart here.

Assays:
[1] = system: Huh-7 HCV replicon cells (1b replicon); experiment: anti-HCV activity in Huh-7 cell line harboring a HCV replicon (luciferase readout); assay type: cell-based; conditions: for Replicon 1b % inhibition at 1 μM: 1b replicon, 1 μM compound
cyclophilin A = cyclophilin A (Homo sapiens, UniProt P62937); experiment: Cyclophilin A TR-FRET competitive binding assay; conditions: competition with CsA-Cy5 for His-tagged CypA, two-hour incubation
Sequence of cyclophilin A (P62937 whole entry, species assumed): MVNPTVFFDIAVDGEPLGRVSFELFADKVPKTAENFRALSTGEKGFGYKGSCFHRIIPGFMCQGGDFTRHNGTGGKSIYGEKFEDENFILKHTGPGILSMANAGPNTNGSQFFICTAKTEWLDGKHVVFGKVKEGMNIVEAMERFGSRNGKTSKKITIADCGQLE
Method: Cyclophilin A TR-FRET Competitive Binding Assay
Inhibitor potency was measured using a competitive binding assay with a time-resolved fluorescence resonance energy transfer (TR-FRET) readout. […] An IC50 value was calculated using a four-parameter logistic fit.

[2] = Hepatitis C virus, Huh-7, 72 h, inhibition of viral replication, Huh-7 HCV replicon cells, 3 days, read-out: EC50
[3] = Hepatitis C virus, Huh-7, read-out: Replicon 1b % inhibition at 1 μM, 1b replicon, 1 μM compound
[4] = inhibition of viral replication, Huh-7 HCV replicon cells, 3 days, read-out: EC50

| Compound | EC50 [1, 2] | inhibition at 1 µM [1, 3] | IC50 (cyclophilin A) | also measured |
| --- | --- | --- | --- | --- |
| CC(=O)CC[C@@H]1C/C=C/c2cc3cc(ccc3cn2)[C@@H](C)NC(=O)[C@@H]2CCCN(N2)C(=O)[C@H](C)NC(=O)[C@H](C(C)C)OC1=O (mixture of isomers) [Compound 14] | < 1000 nM | 100% | < 100 nM |  |
| CC(CC[C@@H]1C/C=C/c2cc3cc(ccc3cn2)[C@@H](C)NC(=O)[C@@H]2CCCN(N2)C(=O)[C@H](C)NC(=O)[C@H](C(C)C)OC1=O)=NOCCN1CCOCC1 (mixture of isomers) [Compound 15] | < 1000 nM | 98% | < 100 nM |  |
| CC(C)[C@@H]1OC(=O)[C@H](CCC(C)N(C)C)C/C=C/c2cc3cc(ccc3cn2)[C@@H](C)NC(=O)[C@@H]2CCCN(N2)C(=O)[C@H](C)NC1=O (mixture of isomers) [Compound 16] | 1100 to 10000 nM | 20% | < 100 nM |  |
| CC(C)[C@@H]1OC(=O)C2(/C=C/c3ccc4ccc(nc4c3)[C@@H](C)NC(=O)[C@@H]3CCCN(N3)C(=O)[C@H](C)NC1=O)CCCCO2 (mixture of isomers) [Compound 49] | < 1000 nM | 100% | < 100 nM |  |
| CC(C)[C@@H]1OC(=O)C2(/C=C/c3ccc4ccc(nc4c3)[C@@H](C)NC(=O)[C@]3(C)CCCN(N3)C(=O)[C@H](C)NC1=O)CCC(O)CC2 (mixture of isomers) [Compound 94] | < 1000 nM | 94% | < 100 nM |  |
| CC1/C=C/c2ccc3ccc(nc3c2)[C@@H](C)OC(=O)[C@@H]2CCCN(N2)C(=O)[C@H](C)NC(=O)[C@H](C(C)C)OC1 (single isomer, unassigned) [Compound 27] | < 1000 nM | 92% | < 100 nM |  |
| CC1/C=C/c2ccc3ccc(nc3c2)[C@@H](C)OC(=O)[C@@H]2CCCN(N2)C(=O)[C@H](C)NC(=O)[C@H](C(C)C)OC1 (single isomer, unassigned) [Compound 28] |  |  | < 100 nM | Replicon 1b % inhibition at 1 μM ([1]; 1 µM): 99%; EC50 [1, 4]: < 1000 nM |
| CC1/C=C/c2ccc3ccc(nc3c2)[C@@H](C)NC(=O)[C@@H]2CCCN(N2)C(=O)[C@H](C)NC(=O)[C@H](C(C)C)OC1 (single isomer, unassigned) [Compound 34] | < 1000 nM | 91% | < 100 nM |  |
| CC1/C=C/c2ccc3ccc(nc3c2)[C@@H](C)NC(=O)[C@@H]2CCCN(N2)C(=O)[C@H](C)NC(=O)[C@H](C(C)C)OC1 (single isomer, unassigned) [Compound 35] | < 1000 nM | 88% | < 100 nM |  |
| COCC1NC(=O)C(C(C)C)OC(=O)C(C)(C)C=Cc2ccc3ccc(nc3c2)C(C)NC(=O)C2CCCN(N2)C1=O (single isomer, unassigned) [Compound 39] | 1100 to 10000 nM | 16% | 101 to 1000 nM |  |
| CC(C)[C@@H]1OC(=O)C2(/C=C/c3ccc4ccc(nc4c3)[C@@H](C)NC(=O)[C@@H]3CCCN(N3)C(=O)[C@H](C)NC1=O)COCCO2 (single isomer, unassigned) [Compound 43] |  |  | < 100 nM | Replicon 1b % inhibition at 1 μM [1]: 99%; EC50 [1, 4]: < 1000 nM |
| CC(C)[C@@H]1OC(=O)C2(/C=C/c3ccc4ccc(nc4c3)[C@@H](C)NC(=O)[C@@H]3CCCN(N3)C(=O)[C@H](C)NC1=O)CN(C(=O)OC(C)(C)C)CCO2 (single isomer, unassigned) [Compound 45] |  |  | < 100 nM |  |
| CC(C)[C@@H]1OC(=O)C2(/C=C/c3ccc4ccc(nc4c3)[C@@H](C)NC(=O)[C@@H]3CCCN(N3)C(=O)[C@H](C)NC1=O)CCCOC2 (single isomer, unassigned) [Compound 50] | < 1000 nM | 100% | < 100 nM |  |
| CC(C)[C@@H]1OC(=O)C2(/C=C/c3ccc4ccc(nc4c3)[C@@H](C)NC(=O)[C@@H]3CCCN(N3)C(=O)[C@H](C)NC1=O)CCCOC2 (single isomer, unassigned) [Compound 51] | < 1000 nM | 100% | < 100 nM |  |
| CC1NC(=O)C(C(C)C)OC(=O)C2(/C=C/c3ccc4ccc(nc4c3)C(C)NC(=O)C3CCCN(N3)C1=O)CCC(O)CC2 (single isomer, unassigned) [Compound 74] | < 1000 nM |  |  | Replicon 1b % inhibition at 1 μM ([1]; 1 µM): 100% |
| CC1NC(=O)C(C(C)C)OC(=O)C2(/C=C/c3ccc4ccc(nc4c3)C(C)NC(=O)C3CCCN(N3)C1=O)CCC(O)CC2 (single isomer, unassigned) [Compound 75] |  |  |  | Replicon 1b % inhibition at 1 μM ([1]; 1 µM): 100%; EC50 [1, 4]: < 1000 nM |
| CC1NC(=O)C(C(C)C)OC(=O)C2(/C=C/c3ccc4ccc(nc4c3)C(C)NC(=O)C3CCCN(N3)C1=O)CCC(O)CC2 (single isomer, unassigned) [Compound 76] |  |  |  | Replicon 1b % inhibition at 1 μM ([1]; 1 µM): 69%; EC50 [1, 4]: < 1000 nM |

| Compound | EC50 [1, 2] | inhibition at 1 µM [1, 3] | IC50 (cyclophilin A) | also measured |
| --- | --- | --- | --- | --- |
| CC1NC(=O)C(C(C)C)OC(=O)C2(/C=C/c3ccc4ccc(nc4c3)C(C)NC(=O)C3CCCN(N3)C1=O)CCC(O)CC2 (single isomer, unassigned) [Compound 77] |  |  |  | Replicon 1b % inhibition at 1 μM ([1]; 1 µM): 56%; EC50 [1, 4]: < 1000 nM |
| CC(C)[C@@H]1OC(=O)C2(/C=C/c3ccc4ccc(nc4c3)[C@@H](C)NC(=O)[C@@H]3CCCN(N3)C(=O)[C@H](C)NC1=O)COC(C)(C)CO2 (single isomer, unassigned) [Compound 100] |  |  | < 100 nM | Replicon 1b % inhibition at 1 μM [1]: 100%; EC50 [1, 4]: < 1000 nM |
| CC1NC(=O)C(C2CC2)OC(=O)C2(C=Cc3ccc4ccc(nc4c3)C(C)NC(=O)C3CCCN(N3)C1=O)CCC(O)C2 (single isomer, unassigned) [Compound 103] | < 1000 nM |  | < 100 nM | Replicon 1b % inhibition at 1 μM ([1]; 1 µM): 90% |
| CC1NC(=O)C(C2CC2)OC(=O)C2(C=Cc3ccc4ccc(nc4c3)C(C)NC(=O)C3CCCN(N3)C1=O)CCC(O)C2 (single isomer, unassigned) [Compound 104] |  |  | < 100 nM | Replicon 1b % inhibition at 1 μM ([1]; 1 µM): 56%; EC50 [1, 4]: < 1000 nM |
| CC(C)[C@@H]1OC(=O)C(C)(C)/C=C/c2ccc3ccc(nc3c2)[C@@H](C)OC(=O)[C@@H]2CCCN(N2)C(=O)[C@H](C)NC1=O [Compound 19] |  |  | < 100 nM |  |
| CC(C)[C@H]1C(=O)N[C@@H](C)C(=O)N2CCC[C@H](N2)C(=O)O[C@H](C)c2ccc3cnc(cc3c2)/C=C/C(C)(C)C(=O)N1C [Compound 22] |  |  | < 100 nM |  |
| CC(C)[C@@H]1OC(=O)C(C)(C)/C=C/c2ccc3ccc(nc3c2)CN(C)C(=O)[C@@H]2CCCN(N2)C(=O)[C@H](C)NC1=O [Compound 33] |  |  | < 100 nM |  |
| COC[C@@]1(C)/C=C/c2ccc3ccc(nc3c2)[C@@H](C)NC(=O)[C@@H]2CCCN(N2)C(=O)[C@H](C)NC(=O)[C@H](C(C)C)OC1=O [Compound 36] |  |  | < 100 nM |  |
| CC(C)[C@@H]1OC(=O)C(C)(C)/C=C/c2ccc3ccc(nc3c2)CNC(=O)[C@@H]2CCCN(N2)C(=O)[C@H](C)NC1=O [Compound 37] |  |  | < 100 nM |  |
| COC[C@@]1(C)/C=C/c2ccc3ccc(nc3c2)[C@@H](C)N(C)C(=O)[C@@H]2CCCN(N2)C(=O)[C@H](C)NC(=O)[C@H](C(C)C)OC1=O [Compound 38] |  |  | < 100 nM |  |
| CC(C)[C@@H]1OC(=O)C2(/C=C/c3ccc4ccc(nc4c3)[C@@H](C)NC(=O)[C@@H]3CCCN(N3)C(=O)[C@H](C)NC1=O)COCCOC2 [Compound 57] | < 1000 nM | 100% |  |  |
| COC[C@]1(C)/C=C/c2ccc3ccc(nc3c2)[C@@H](C)NC(=O)[C@@H]2CCCN(N2)C(=O)[C@H](C)NC(=O)[C@H](C(C)C)OC1=O [Compound 58] |  |  | < 100 nM |  |
| C[C@@H]1NC(=O)[C@H](C2CCC2)OC(=O)C2(/C=C/c3ccc4ccc(nc4c3)[C@@H](C)NC(=O)[C@@H]3CCCN(N3)C1=O)COCOC2 [Compound 64] |  |  |  | EC50 ([1]; Hepatitis C virus, Huh-7, 72 h): < 1000 nM; inhibition at 1 µM ([1]; Hepatitis C virus, Huh-7, read-out: Replicon 1b % inhibition at 1 μM): 100% |
| CC(C)[C@@H]1OC(=O)C(C)(C)/C=C/c2cc3cc(ccc3cn2)[C@@H](C)NC(=O)[C@@H]2CCCN(N2)C(=O)[C@H](C)NC1=O [Compound 69] | < 1000 nM | 100% |  |  |
| CC(C)[C@@H]1OC(=O)C2(/C=C/c3ccc4ccc(nc4c3)[C@@H](C)NC(=O)[C@@H]3CCCN(N3)C(=O)[C@H](C)NC1=O)CCOCC2 [Compound 88] | < 1000 nM | 100% |  |  |
| COC1CCC2(/C=C/c3ccc4ccc(nc4c3)[C@@H](C)NC(=O)[C@@H]3CCCN(N3)C(=O)[C@H](C)NC(=O)[C@H](C(C)C)OC2=O)CC1 (stereo partly shown) [Compound 92] | < 1000 nM | 100% |  |  |
| CC(C)[C@@H]1OC(=O)C2(/C=C/c3ccc4ccc(nc4c3)[C@@H](C)NC(=O)[C@@H]3CCCN(N3)C(=O)[C@H](C)NC1=O)CCS(=O)(=O)CC2 [Compound 106] | < 1000 nM | 95% |  |  |
